Measurements from patent US10064975B2, “Method for coating skin abrasion, laceration, burn or oedema after surgery” (Lilac Laboratory Co., Ltd., priority 2014, dated 2018).

Assay: pH
Type: physicochemical
Conditions: less affected by the concentration
Source text: According to the present invention, an active ingredient, aluminium chloride hydrate, is preferably used at the practical range of 0.005% to 20% by weight in view of the strong acidity thereof and tissue irritating nature. The pH of aluminium chloride is less affected by the concentration and is as low as around pH 1.9. Aluminium chloride has strong tissue irritating nature, and thus is more preferably adjusted to pH of 2.8 to 6.0 in practical use.
In the present Example, in order to reduce irritating nature at affected areas due to the acidity of aluminium chloride, 3.0% of the 10% sodium hydroxide solution was added to neutralise, the produced precipitate was removed by filtration and pH was adjusted to 3.9. […] Therefore, the 70% ethanol preparation was added as a fungicide.
In the present Example, in order to reduce irritating nature at affected areas due to the acidity of aluminium chloride, the solution was neutralised with sodium hydroxide and adjusted to pH 3.5, and the precipitate was removed by filtration.

pH of aluminium chloride: ~1.9
Structure (SMILES): [Cl][Al]([Cl])[Cl] [aluminium chloride]
